In patent US20240050943A1, “MULTI-VOLUME MICROCHAMBER-BASED MICROFLUIDIC PLATFORM AND USE THEREOF” (CORNELL UNIVERSITY, priority 2020, published 2024):

Experiments:
[1] = test system: E. coli 541-15; assay: Gold standard broth microdilution (BMD) test, OD600; assay type: cell-based; details: E. coli 541-15, 1×10^6 CFU/mL
[2] = test system: GFP-labeled E. coli 541-15; assay: Antibiotic susceptibility test (AST) in the EL-MVM^2 microfluidic platform, resazurin fluorescence / GFP readout; assay type: cell-based; details: GFP-labeled E. coli 541-15, 4.5 hours of incubation; intermediate sub-GCP = 1.12-12.54 μg/mL

## Gentamicin
[1]
  MIC (broth microdilution, OD600 nm, 80% reduction): 5.00 µg/mL
[2]
  Turning point of GFP-labeled bacterial growth from partially to totally inhibited: intermediate concentration range
